In patent US5698672A, “Synthetic calcitonin mimetics” (ZymoGenetics, Inc., priority 1995, dated 1997):
[ ]: non-standard residue; d: D form. Aib = CC(C)(N)C(=O)O

Assays:
[1] = molecular target: T1, human calcitonin receptor (Homo sapiens, UniProt P30988); experiment: CRE-luciferase induction in Hollex-1 cells (BHK, human calcitonin receptor); assay type: cell-based
T1 construct: expressed in transfected cells; host or cells: BHK 570 derivative KZ10-20-48 (clone Hollex-1)
T1 sequence (P30988 25-474): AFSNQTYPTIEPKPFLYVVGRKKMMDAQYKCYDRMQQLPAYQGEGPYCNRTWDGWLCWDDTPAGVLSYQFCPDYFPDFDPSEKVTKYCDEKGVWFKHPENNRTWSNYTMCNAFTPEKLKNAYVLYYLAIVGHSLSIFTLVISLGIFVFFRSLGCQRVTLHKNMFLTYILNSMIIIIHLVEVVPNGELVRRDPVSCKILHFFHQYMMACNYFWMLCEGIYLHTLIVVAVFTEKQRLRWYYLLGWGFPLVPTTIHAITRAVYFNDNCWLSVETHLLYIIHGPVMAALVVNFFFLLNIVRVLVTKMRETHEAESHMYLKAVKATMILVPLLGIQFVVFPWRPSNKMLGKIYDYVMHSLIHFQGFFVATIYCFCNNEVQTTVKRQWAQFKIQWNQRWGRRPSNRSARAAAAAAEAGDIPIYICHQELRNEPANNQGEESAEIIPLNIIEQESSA

[2] = tested on: KZ10-20-48 (BHK 570 cells with CRE-luciferase reporter); experiment: CRE-luciferase induction in BHK/KZ10-20-48 cells; assay type: cell-based, hamster; settings: clone KZ10-20-48; 25 mM forskolin, 4 hours; range 15-25 fold
[3] = molecular target: human glucagon receptor (Homo sapiens, UniProt P47871); settings: KZ10-20-48/pLJ6-4-25
Sequence of human glucagon receptor (P47871 26-477): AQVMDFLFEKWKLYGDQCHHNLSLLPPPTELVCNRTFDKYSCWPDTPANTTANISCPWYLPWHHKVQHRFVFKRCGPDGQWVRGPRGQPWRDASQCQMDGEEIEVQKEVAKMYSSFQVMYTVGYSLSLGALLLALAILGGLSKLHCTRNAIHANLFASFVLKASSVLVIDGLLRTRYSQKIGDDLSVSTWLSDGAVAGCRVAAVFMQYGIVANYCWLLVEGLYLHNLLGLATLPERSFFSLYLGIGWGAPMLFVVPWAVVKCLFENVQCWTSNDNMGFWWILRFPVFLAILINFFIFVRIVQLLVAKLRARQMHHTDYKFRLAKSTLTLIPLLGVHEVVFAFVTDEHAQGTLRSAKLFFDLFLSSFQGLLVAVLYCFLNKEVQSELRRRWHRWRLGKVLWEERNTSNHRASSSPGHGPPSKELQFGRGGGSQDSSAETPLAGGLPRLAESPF

[4] = tested on: KZ10-20-48/Zem 228 (calcitonin receptor-negative BHK cells); experiment: CRE-luciferase induction in receptor-negative KZ10-20-48/Zem 228 cells; settings: Mesocricetus auratus, read-out: EC50, CRE-luciferase induction
[5] = molecular target: hamster calcitonin receptor (Mesocricetus auratus, UniProt A0A3Q0D7K7); experiment: CRE-luciferase induction in Boris/KZ10-3 cells (hamster calcitonin receptor)
Sequence of hamster calcitonin receptor (A0A3Q0D7K7 entry or part of it): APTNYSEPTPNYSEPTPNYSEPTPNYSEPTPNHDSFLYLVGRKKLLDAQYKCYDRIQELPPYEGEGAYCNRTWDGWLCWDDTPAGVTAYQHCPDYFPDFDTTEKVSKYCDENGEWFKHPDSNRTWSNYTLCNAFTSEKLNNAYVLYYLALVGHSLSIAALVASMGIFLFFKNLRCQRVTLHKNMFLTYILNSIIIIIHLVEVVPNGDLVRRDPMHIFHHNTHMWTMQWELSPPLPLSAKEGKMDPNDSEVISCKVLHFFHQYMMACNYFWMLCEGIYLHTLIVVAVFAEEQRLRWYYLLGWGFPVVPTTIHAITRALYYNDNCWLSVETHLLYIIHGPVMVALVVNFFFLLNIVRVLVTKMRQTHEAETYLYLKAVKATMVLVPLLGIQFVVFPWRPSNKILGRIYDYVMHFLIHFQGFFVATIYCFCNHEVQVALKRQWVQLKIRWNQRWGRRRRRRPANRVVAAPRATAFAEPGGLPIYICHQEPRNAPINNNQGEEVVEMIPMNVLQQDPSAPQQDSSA

[6] = tested on: calcitonin receptor; experiment: CRE-luciferase assay for calcitonin mimetics (calcitonin receptor-positive cell line, Hollex-1 or Boris/KZ10); assay type: cell-based; settings: calcitonin receptor-positive cells; cell line not given; read-out: CRE-Luciferase Induction EC50
From the text: All synthetic calcitonin mimetics are subjected to an assay system that permits rapid identification of substances having selective calcitonin receptor activity on cells expressing the calcitonin receptor. Only those modifications which retain calcitonin-like activity, as assayed by the CRE-luciferase assay for example, are within the scope of this invention. The calcitonin receptor is a member of the G-protein receptor family and transduces signal via activation of adenylate cyclase, leading to elevation of cellular cAMP levels (Lin et al., Science 254:1022-24, 1991). This assay system exploits the receptor's ability to elevate cAMP levels as a way to detect other molecules, not calcitonin, that are able to stimulate the calcitonin receptor and initiate signal transduction.

[7] = tested on: PTH induced bone resorption in mouse calvariae; experiment: Calvarial assay: PTH induced bone resorption, calcium release; assay type: cell-based; settings: 1 nM PTH 1-34, 72 hours, neonatal mouse calvariae; read-out: Inhibition of Ca++ Release EC50
Method: Calvaria from 4-day old neonatal CD-1 mice (pregnant mice received from Charles River Laboratories, Wilmington, Mass.) were trimmed with fine-tipped scissors to leave the parietal regions, including the sagittal suture. These trimmed bones were placed singly per well into 6-well cell culture cluster plates (Costar, Pleasanton, Calif.) with 1 ml/well of growth medium (DMEM (BioWhittaker, Walkersville, Md.) with 4.5 g/L glucose, 0.29 mg/ml L-glutamine, 1 mM sodium pyruvate, 15% heat-inactivated horse serum, and antibiotics (penicillin-G […], streptomycin […], and neomycin […])), and rocked gently (RedRocker™, model PR50-115V) (Hoefer, San Francisco, Calif.) at 37° C. in a 5% CO2 humidified incubator for 24 hours preincubation.
Following incubation, medium was removed and replaced with 1.5 ml/well of growth medium containing 1 nM parathyroid hormone (PTH) 1-34 (Sigma) to stimulate bone resorption. For evaluation of the ability of synthetic calcitonin mimetics to inhibit PTH induced bone resorption, mimetic compounds in DMSO were added to the growth medium at concentrations ranging from […] (final assay concentration of DMSO less than or equal to 1%). In each experiment human calcitonin (0.02-20 nM, 0.2-2 nM preferred) was added to PTH treated bones as a positive control. […]

[8] = tested on: osteoclasts in mouse calvariae; experiment: Calvaria histology: osteoclast number and size; assay type: cell-based; settings: PTH induced bone resorption in mouse calvariae
From the text: To confirm the findings in the calvarial bone resorption assay employing calcium release from culture mouse calvariae, selected bones were fixed in 10% neutral buffered formalin and demineralized in 5% formic acid with 5% formalin. The bones were dehydrated through an ascending series of ethanol concentrations, infiltrated in glycol methacrylate, and embedded using a JB-4 embedding kit (PolySciences, Warrington, Pa.) (Liu and Kalu, J. Bone Miner. Res., 5:973-82, 1990). Cross sections of calvariae cut at […] were obtained and stained for tartrate-resistant acid phosphatase (TRAP) activity and counterstained with methyl green and thionin for cell morphology (Liu and Kalu, J. Bone. Miner. Res. 1990, supra). osteoclasts were identified by TRAP stain, multinucleation, large cell size, and irregular cell shape. The number of osteoclasts were counted from endocranial and ectocranial bone surfaces and expressed as number/mm perimeter. The size of all the osteoclasts counted was also measured using a Bone Morphometry program (Lui and Kalu, supra.; Bain et al., J. Bone Miner. Res. 8:435-42, 1993). […] This PTH-induced increase was suppressed by treatment with human calcitonin.
Calcitonin mimetic compounds were evaluated in a similar fashion for their ability to suppress PTH-induced increases in osteoclast number and size. Cell toxicity (or death) was also evaluated morphologically. […]

EC50 [6] | EC50 [7] | Compound | EC50 [1] | induction of CRE-luciferase [2] | induction of luciferase [3] | EC50 [4] | induction of luciferase [5] | Histology [8]
 |  | C=C[C@@]1(C)CC(=O)[C@]2(O)[C@@]3(C)[C@@H](O)CCC(C)(C)[C@@H]3[C@H](O)[C@H](OC(C)=O)[C@@]2(C)O1 [forskolin] | 1200 nM | 20 fold | 35 fold | 600 nM | 25 fold | 
2280 nM | 36000 nM | Ac-W[Aib]Q[Aib]IT[Aib]L[Aib]PQ[Aib]PF-OH [Synthetic 2807] |  |  |  |  |  | Inhibitory
